In patent US7256190B2, “Thiazole compounds useful as inhibitors of protein kinase” (Vertex Pharmaceuticals Incorporated, priority 2001, dated 2007):

How the values were obtained:
Assay type in all cases: biochemical
Aurora2 = target: T1, Aurora2 (Homo sapiens, UniProt O14965); assay: Aurora2 inhibition assay (coupled enzyme assay); conditions: 800 μM peptide LRRASLG, 70 nM Aurora2, 30° C.
T1 sequence (O14965 1-403): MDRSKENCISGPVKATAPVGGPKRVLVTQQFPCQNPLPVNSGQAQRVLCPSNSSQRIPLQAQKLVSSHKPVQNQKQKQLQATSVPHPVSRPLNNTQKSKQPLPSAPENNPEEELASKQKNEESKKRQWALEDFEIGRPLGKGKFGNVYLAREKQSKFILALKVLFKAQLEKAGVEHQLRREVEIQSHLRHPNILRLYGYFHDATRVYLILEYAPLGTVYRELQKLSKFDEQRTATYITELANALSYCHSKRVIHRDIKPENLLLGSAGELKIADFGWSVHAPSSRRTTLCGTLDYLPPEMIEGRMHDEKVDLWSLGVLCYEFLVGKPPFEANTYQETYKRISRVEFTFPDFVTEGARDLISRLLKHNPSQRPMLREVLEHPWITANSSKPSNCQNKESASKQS
Protocol: Compounds are screened in the following manner for their ability to inhibit Aurora2 using a standard coupled enzyme assay (Fox et al (1998). Protein Sci 7, 2246). To an assay stock buffer solution containing 0.1M HEPES 7.5, 10 mM MgCl2, 1 mM DTT, 25 mM NaCl, 2.5 mM prosphoenolpyruvate, […], […] pyruvate kinase, […] lactate dehydrogenase, […], and 800 μM peptide (LRRASLG, American Peptide, Sunnyvale, Calif.) is added a DMSO solution of a compound of the present invention to a final concentration of 30 μM. The resulting mixture is incubated at 30° C. for 10 minutes. The reaction was initiated by the addition of 10 μL of Aurora2 stock solution to give a final concentration of 70 nM in the assay. The rates of reaction are obtained by monitoring absorbance at 340 nm over a 5 minute read time at 30° C. using a BioRad Ultramark plate reader (Hercules, Calif.). The IC50 values are determined from the rate data as a function of inhibitor concentration.
(§1) The compound numbers correspond to the compound numbers in Table 1.

GSK3-β (AA 1-420) = GSK3-β (AA 1-420) (Homo sapiens, UniProt P49841); assay: GSK-3 inhibition assay (coupled enzyme system); conditions: 10 μM ATP, 300 μM peptide, 60 nM GSK-3β, 30° C.
GSK3-β (AA 1-420), sequence (P49841 whole entry, the tested form may be a part): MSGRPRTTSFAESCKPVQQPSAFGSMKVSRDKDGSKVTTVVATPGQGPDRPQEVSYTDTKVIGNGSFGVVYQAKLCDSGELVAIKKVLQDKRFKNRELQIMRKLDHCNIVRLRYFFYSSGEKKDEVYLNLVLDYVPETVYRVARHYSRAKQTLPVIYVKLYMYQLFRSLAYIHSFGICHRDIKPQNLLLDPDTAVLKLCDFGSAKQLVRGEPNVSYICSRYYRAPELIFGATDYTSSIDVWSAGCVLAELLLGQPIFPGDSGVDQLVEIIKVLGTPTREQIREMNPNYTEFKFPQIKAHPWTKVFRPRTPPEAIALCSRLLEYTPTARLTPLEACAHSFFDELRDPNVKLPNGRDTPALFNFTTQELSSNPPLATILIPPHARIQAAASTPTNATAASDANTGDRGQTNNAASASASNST
Protocol: Compounds were screened for their ability to inhibit GSK3-β (AA 1-420) activity using a standard coupled enzyme system (Fox et al. (1998) Protein Sci. 7, 2249). Reactions were carried out in a solution containing 100 mM HEPES (pH 7.5), 10 mM MgCl2, 25 mM NaCl, 300 μM NADH, 1 mM DTT and 1.5% DMSO. Final substrate concentrations in the assay were 10 μM ATP (Sigma Chemicals, St Louis, Mo.) and 300 μM peptide (HSSPHQS(PO3H2)EDEEE, American Peptide, Sunnyvale, Calif.). Reactions were carried out at 30° C. and 60 nM GSK-3β. Final concentrations of the components of the coupled enzyme system were 2.5 mM phosphoenolpyruvate, 300μM NADH, 30 μg/ml pyruvate kinase and 10 μg/ml lactate dehydrogenase.
An assay stock buffer solution was prepared containing all of the reagents listed above with the exception of ATP and the test compound of interest. 59 μl of the test reaction was placed in a 96 well ½-diameter plate (Corning, Corning, N.Y.) then treated with 1 μl of a 2 mM DMSO stock containing the test compound (final compound concentration 30 μM). The plate was incubated for ˜10 minutes at 30° C. then the reaction initiated by addition of 7 μl of ATP (final concentration 10 μM). Rates of reaction were obtained using a Molecular Devices Spectramax plate reader (Sunnyvale, Calif.) over a 5 minute read time at 30° C.
as §1

Syk = Syk (Homo sapiens, UniProt P43405); assay: Syk inhibition assay (coupled enzyme assay); conditions: 200 μM ATP, 4 μM poly Gly-Tyr peptide, 30° C.
Protocol: Reactions were carried out in 100 mM HEPES pH 7.5, 10 mM MgCl2, 25 mM NaCl, 1 mM DTT and 1.5% DMSO. Final substrate .concentrations in the assay were 200 μM ATP (Sigmachemical Co.) and 4 μM poly Gly-Tyr peptide (Sigma Chemical Co.). Assays were carried out at 30° C. and 200 nM Syk. Final concentrations of the components of the coupled enzyme system were 2.5 mM phosphoenolpyruvate, 300 μM NADH, 30 μg/ml pyruvate kinase and 10 μg/ml lactate dehydrogenase.
An assay stock buffer solution was prepared containing all of the reagents listed above, with the exception of Syk, DTT and the test compound of interest. 56 μl of the test reaction was placed in a 96 well plate followed by the addition of 1 μl of 2 mM DMSO stock containing the test compound (final compound concentration 30 μM). […] Rates of reaction were obtained using a BioRad Ultramark plate reader (Hercules, Calif.) over a 5 minute read time at 30° C.
as §1

| IC50 (Aurora2) | Ki (GSK3-β (AA 1-420)) | IC50 (Syk) | SMILES |
| --- | --- | --- | --- |
| < 500 nM | < 100 nM | > 2000 nM | c1cc(Nc2nccc(-c3nccs3)n2)cc(OCc2ccncc2)c1 [Compound I-8] |
| < 500 nM | > 1000 nM | 500 to 2000 nM | O=[N+]([O-])c1cccc(Nc2nccc(-c3nccs3)n2)c1 [Compound I-16] |
| 500 to 2000 nM | < 100 nM | 500 to 2000 nM | Fc1cccc(Nc2nccc(-c3nccs3)n2)c1 [Compound I-19] |
| < 500 nM | < 100 nM | < 500 nM | c1cncc(COc2cccc(Nc3nccc(-c4nccs4)n3)c2)c1 [Compound I-23] |
| 500 to 2000 nM | < 100 nM | < 500 nM | COc1cccc(Nc2nccc(-c3nccs3)n2)c1 [Compound I-25] |
| < 500 nM | < 100 nM | < 500 nM | c1cc(Nc2nccc(-c3nccs3)n2)cc(OCCn2cccc2)c1 [Compound I-29] |
| < 500 nM | < 100 nM | < 500 nM | Nc1ccccc1COc1cccc(Nc2nccc(-c3nccs3)n2)c1 [Compound I-38] |
| 500 to 2000 nM | < 100 nM | > 2000 nM | Fc1ccc(Nc2nccc(-c3nccs3)n2)cc1F [Compound I-49] |
| > 2000 nM | < 100 nM | > 2000 nM | Fc1cc(Nc2nccc(-c3nccs3)n2)cc(F)c1F [Compound I-58] |
| > 2000 nM |  | > 2000 nM | O=[N+]([O-])c1cccc(Oc2cccc(Nc3nccc(-c4nccs4)n3)c2)c1 [Compound I-59] |
| 500 to 2000 nM |  | < 500 nM | Nc1cccc(Oc2cccc(Nc3nccc(-c4nccs4)n3)c2)c1 [Compound I-62] |
| > 2000 nM | > 1000 nM | > 2000 nM | Fc1cccc(F)c1Nc1nccc(-c2nccs2)n1 [Compound I-64] |
| > 2000 nM | < 100 nM | > 2000 nM | c1cc(Nc2nccc(-c3nccs3)n2)cc(OCC2CCCCC2)c1 [Compound I-76] |
| > 2000 nM | < 100 nM | > 2000 nM | COC(=O)c1ccc(COc2cccc(Nc3nccc(-c4nccs4)n3)c2)cc1 [Compound I-82] |
| > 2000 nM | < 100 nM | > 2000 nM | Fc1ccc(COc2cccc(Nc3nccc(-c4nccs4)n3)c2)cc1 [Compound I-109] |

Further lines, the compound ahead of its results:

| SMILES | IC50 (Aurora2) | Ki (GSK3-β (AA 1-420)) | IC50 (Syk) |
| --- | --- | --- | --- |
| Clc1ccc(COc2cccc(Nc3nccc(-c4nccs4)n3)c2)cc1Cl [Compound I-2] | > 2000 nM | > 1000 nM | > 2000 nM |
| c1ccc(Oc2cccc(Nc3nccc(-c4nccs4)n3)c2)cc1 [Compound I-4] | 500 to 2000 nM | < 100 nM | 500 to 2000 nM |
| CS(=O)(=O)c1ccc(COc2cccc(Nc3nccc(-c4nccs4)n3)c2)cc1 [Compound I-5] | > 2000 nM | < 100 nM | < 500 nM |
| Oc1cccc(Nc2nccc(-c3nccs3)n2)c1 [Compound I-11] | < 500 nM | < 100 nM | < 500 nM |
| Nc1cccc(COc2cccc(Nc3nccc(-c4nccs4)n3)c2)c1 [Compound I-14] | 500 to 2000 nM | < 100 nM | 500 to 2000 nM |
| c1cc(Nc2nccc(-c3nccs3)n2)cc(OCc2ccc3c(c2)OCO3)c1 [Compound I-17] | < 500 nM | < 100 nM | < 500 nM |
| Clc1cccc(Nc2nccc(-c3nccs3)n2)c1 [Compound I-22] | < 500 nM | < 100 nM | < 500 nM |
| Ic1cccc(Nc2nccc(-c3nccs3)n2)c1 [Compound I-31] | < 500 nM | < 100 nM | < 500 nM |
| Brc1cccc(Nc2nccc(-c3nccs3)n2)c1 [Compound I-34] | < 500 nM | < 100 nM | < 500 nM |
| O=[N+]([O-])c1ccccc1COc1cccc(Nc2nccc(-c3nccs3)n2)c1 [Compound I-35] | > 2000 nM | < 100 nM | > 2000 nM |
| FC(F)(F)c1cccc(Nc2nccc(-c3nccs3)n2)c1 [Compound I-37] | 500 to 2000 nM | < 100 nM | < 500 nM |
| Fc1ccc(Nc2nccc(-c3nccs3)n2)cc1 [Compound I-43] | > 2000 nM | < 100 nM | > 2000 nM |
| Clc1ccc(Nc2nccc(-c3nccs3)n2)cc1 [Compound I-46] | > 2000 nM | < 100 nM | > 2000 nM |
| c1ccc2cc(Nc3nccc(-c4nccs4)n3)ccc2c1 [Compound I-52] | > 2000 nM | < 100 nM | > 2000 nM |
| NS(=O)(=O)c1ccc(Nc2nccc(-c3nccs3)n2)cc1 [Compound I-55] | < 500 nM | < 100 nM | < 500 nM |
| c1cc(Nc2nccc(-c3nccs3)n2)cc(Oc2ccncc2)c1 [Compound I-56] | 500 to 2000 nM |  | 500 to 2000 nM |
| Clc1cccc(Cl)c1Nc1nccc(-c2nccs2)n1 [Compound I-61] | > 2000 nM | > 1000 nM | > 2000 nM |
| Cc1ccc(Nc2nccc(-c3nccs3)n2)cc1 [Compound I-67] | < 500 nM | 100 to 1000 nM | < 500 nM |
| Cc1cc(C)cc(Nc2nccc(-c3nccs3)n2)c1 [Compound I-73] | < 500 nM | < 100 nM | < 500 nM |
| Clc1ccccc1COc1cccc(Nc2nccc(-c3nccs3)n2)c1 [Compound I-88] | 500 to 2000 nM | < 100 nM | > 2000 nM |
| Fc1cccc(F)c1COc1cccc(Nc2nccc(-c3nccs3)n2)c1 [Compound I-94] | < 500 nM | < 100 nM | < 500 nM |
| FC(F)(F)c1cccc(COc2cccc(Nc3nccc(-c4nccs4)n3)c2)c1 [Compound I-106] | > 2000 nM | < 100 nM | > 2000 nM |
| Clc1cccc(COc2cccc(Nc3nccc(-c4nccs4)n3)c2)c1Cl [Compound I-112] | > 2000 nM | < 100 nM | > 2000 nM |
